Like-named read-outs stand apart in the source and are kept apart here. Ends that are not written are not given here. * marks the point of attachment. Methacryloyl = C=C(C)C(=O)*

We go through three substances from patent publication US9867884B2, “Vascular delivery systems” (Ben-Gurion University of the Negev Research and Development …, priority 2008, dated 2018).

The subject of experiment [1] is E-selectin expressing cells (IVECs). Briefly: Flow cytometry of binding and uptake of FITC-labeled conjugates by IVECs. Type of experiment: cell-based, human. The settings on record: 1 h at 4° C., E-selectin expressing cells (FIG. 12). Here is the method:
FIG. 11A-F depicts the results of flow cytometry assays of IVECs incubated with P-Esbp at different temperatures. FIGS. 11(A)-(D) depict results of IVECs incubated 4° C. for 1 hour, while FIGS. 11(E)-(F) depict results of IVECs incubated 37° C. for 15 hr in activated (F) and non-activated (E) cells. FIGS. 11A and 11B show results of incubation with P-Esbp at a concentration of 10 and 50 μg/ml, respectively in TNF-α activated cells, versus 11C and D, which show the results of non-activated cells incubated with the same concentration of P-Ebsp, respectively. Fluorescence, size and number of cells were all measured with GUAVA Tech-Mini Easycyte at 520 nm. Statistical analysis of the results was performed with Cytosoft software (GUAVA Tech). Gates for size and fluorescence were set according to the control experiment with P-GG-OH incubated with non activated IVEC cells.
At 37° C. […]
E-selectin expressing cells were treated with P-Esbp and P-Scrmb as described in previous examples, to determine binding, in activated and non-activated cells (FIG. 12). Cells were treated with P-Esbp and P-Scrmb conjugates for 1 h at 4° C. and evaluated for binding. […] Binding of P-Esbp and scrambled Esbp peptide sequence polymer conjugates (P-Scrmb) to E-selectin expressing cells was similarly evaluated, when cells were also contacted with or without free peptides (FIG. 13). […]
On the technique in general: A flow cytometer gives signals particle by particle.

The test system of experiment [2] is E-selectin expressing cells (human IVECs). Briefly: Confocal microscopy of uptake and lysosomal colocalization of FITC-labeled copolymer conjugates in IVECs. Type of experiment: cell-based. The settings on record: Example 17, activated and non-activated human IVECs (FIG. 14). Here is the method: Internalization of P-sLe^x-FITC and P-QA-FITC conjugates by endothelial cells was studied using confocal laser scanning microscopy (CLSM). Human IVECs grown on cover glass, and treated with the polymer conjugate, and probed for localization of the polymer within lysosomal vessicles. After 24 hours incubation, cells are washed with cold phosphate-buffered saline (PBS) and fixed with 4% PFA. The cells on the cover glass are mounted in antibleach reagent on slides, examined using a CLSM, and analyzed.
Confocal microscopy was used to evaluate the subcellular fate of the FITC labeled copolymer conjugates by human immortalized vascular endothelial cells, IVECs. Lysotracker Red DND-99 (Molecular Probes, Leiden, The Netherlands) was selected to visualize lysosomes. Cells ([…]) were seeded onto gelatin coated cover slips in 24 wells plate with 500 μL endothelial cells culture medium (Promocell) and incubated for 24 hr. […] Quantitative analysis was performed using Image-Pro Plus 4.0 (Media Cybernetics, Silver Spring, Md.). Fluorescence intensities were expressed in arbitrary units per square micron. […]
Confocal microscopy was used to evaluate the uptake of P-Esbp. […] After removal of medium cells were incubated with 0.5 ml medium with 50 μg/ml of FITC labeled P-Esbp solution for 6 or 24 hours and subjected to fluorescence microscopy. […]

Experiment [3] has as its target T1, E-selectin (Homo sapiens, UniProt P16581).
T1 sequence (P16581 22-556 limits assumed): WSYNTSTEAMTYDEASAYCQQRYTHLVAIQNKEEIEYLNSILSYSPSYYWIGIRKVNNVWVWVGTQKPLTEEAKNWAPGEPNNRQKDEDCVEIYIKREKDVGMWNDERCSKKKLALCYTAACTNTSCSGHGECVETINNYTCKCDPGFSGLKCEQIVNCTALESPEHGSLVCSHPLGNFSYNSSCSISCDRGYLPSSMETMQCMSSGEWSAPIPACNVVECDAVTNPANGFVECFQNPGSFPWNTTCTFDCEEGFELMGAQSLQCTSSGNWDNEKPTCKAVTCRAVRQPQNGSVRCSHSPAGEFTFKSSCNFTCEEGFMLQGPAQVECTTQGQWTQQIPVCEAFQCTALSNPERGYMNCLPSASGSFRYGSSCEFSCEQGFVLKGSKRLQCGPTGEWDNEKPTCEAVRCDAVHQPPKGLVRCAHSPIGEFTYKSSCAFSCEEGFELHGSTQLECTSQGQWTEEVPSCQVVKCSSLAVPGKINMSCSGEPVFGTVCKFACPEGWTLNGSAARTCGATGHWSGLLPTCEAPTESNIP
Briefly: Inhibition of HL-60 adhesion to recombinant soluble E-selectin coated plates (competitive inhibition assay). Format: binding. As for the experimental part: The percentage of bound HL-60 cells is determined with o-phenylenediamine as a substrate for myeloperoxidases released from lysed cells. […] FIG. 3B depicts binding in the presence of P-Glu-Gly-QA, PAAsLe^x and pHPMA polymers; FIG. 3C depicts binding of P-Glu-Gly-QA and P-Gly-Gly-Lys(Glu)-QA conjugates.
Affinity of Esbp and P-Esbp to E-selectin was evaluated by a competitive inhibition assay of HL-60 to immobilized E-selectin. […] FIG. 7B the results of an inhibition assay with P-Esbp and P-GG-OH, under the same procedure as in FIG. 7A. In this figure diamonds are P-Esbp and squares are P-GG-OH.
The percentage of bound HL-60 cells is determined with o-phenylenediamine as a substrate for myeloperoxidases released from lysed cells. All assays is performed in duplicates.

The test system of experiment [4] is leukocyte adhesion. The settings on record: have been shown (prior report); read-out: IC50 of inhibition of leukocyte adhesion; cited from earlier work.

Regarding “P-Scrmb: scrambled Esbp peptide sequence polymer conjugate, GKMIDWTWLQLDD (SEQ ID NO: 8) (Methacryloyl-GGGKMIDWTWLQLDD; also: polymer conjugate, FITC)”, in experiment [1], the “percentage of labeled cells” value is recorded as 6%. Further, the “internalization and colocalization with lysosomal marker” value in experiment [2] is given as “did not show reasonable internalization or colocalization”.
With “N-methacryloyl-aminopropyl-Glutamyl-Glycyl-quinic acid [MAP-Glu-Gly-QA]”, the IC50 in experiment [3] (monomers, HL-60 adhesion to immobilized E-selectin, 15 min (FIG. 3A), read-out: Inhibition of 50% binding (IC50) value) amounted to 10000 µM.
Consider DITWDQLWDLMK [Esbp, reference compound], for which the half-maximal inhibitory concentration (IC50) in experiment [3] (Esbp monomer, FIG. 7A, read-out: IC50) is 10 µM; in experiment [4] it was 0.004 µM.

A word on the IC50: it is the point on the concentration scale where inhibition reaches its midpoint.
